The results in this text go back to patent US4659717A, “Dihydropyridines useful in the treatment of angina and stroke” (Eli Lilly and Company, priority 1985, dated 1987).

Each structure is given as a SMILES string.

In one assay the test system is Dog Coronary Artery. The assay can be described thus: Dog coronary artery test: relaxation of KCl-contracted coronary artery rings. Type of assay: cell-based. To be noted: Canis lupus familiaris, coronary artery rings contracted with 50 mM KCl, 37° C.; IC50 = 50% relaxation; mean values, probit analysis. Here is the method:
Mongrel dogs of either sex and weighing 15 to 30 kg were anesthetized with pentobarbital (35 mg/kg). Each heart was quickly removed through a right thoracotomy and placed in Kreb's bicarbonate solution of the following composition (mM/L): NaCl, 118.2; KCl, 4.6; CaCl2.2H2 O, 1.6; KH2 PO4, 1.2; MgSO4.7H2 O, 1.2; NaHCO3, 24.8; and dextrose, 10.0. The medium was kept at room temperature and saturated with 95% O2 /5% CO2. The left anterior descending and circumflex coronary arteries were isolated and used either immediately or stored overnight at 5° C. Arteries were cut into rings approximately 2 to 3 mm wide, placed on 2 L-shaped hooks and mounted in a 10 ml organ bath by attaching one hook to a stationary glass rod and the other hook to a force-displacement transducer. Tissue medium consisted of Kreb's bicarbonate solution maintained at 37° C. and bubbled with 95 % O2 /5% CO2. Artery rings were equilibrated for 1-2 hours under a resting tension of 3 g. Tissue medium was then changed to one containing 50 mM KCl and 72.8 mM NaCl but otherwise identical to Kreb's bicarbonate solution. After tissues achieved a steady state contractile tension (1-2 hours) a given test agent was added to each bath and concentration-response curves determined. […] At the end of the concentration-response curve, tissue medium was changed to one identical to the 50 mM KCl buffer but containing 2.5 mM EGTA and no CaCl2.2H2 O to obtain complete relaxation of the tissue. Percent relaxation was then determined for each concentration and values producing 50% relaxation (IC50) were estimated using a probit analysis.
The term IC50 denotes the point on the concentration scale where inhibition reaches its midpoint. A low value points to greater potency in that assay. For `CCOC(=O)C1=C(C)NC(C)=C(C(=O)OCC)C1c1cc2cnccc2s1` [Example 2, 1,4-Dihydro-2,6-dimethyl-4-(thieno[3,2-c]pyridin-2-yl)-3,5-pyridinedicarboxylic acid, diethyl ester], the IC50 was 10.7 µM.

Turning to `CCCCOC(=O)C1=C(C)NC(C)=C(C(=O)OCCCC)C1c1csc2ccncc12` [Example 53, 1,4-Dihydro-2,6-dimethyl-4-thieno[3,2-c]pyridin-3-yl-3,5-pyridinedicarboxylic acid, dibutyl ester], the IC50 was 1.07 µM. The same measure, in the same setting: as for `CCOC(=O)C1=C(C)NC(C)=C(C(=O)OCC)C1c1csc2ccc(Cl)cc12` [Example 4, 4-(5-Chlorobenzo[b]thien-3-yl)-1,4-dihydro-2,6-dimethyl-3,5-pyridinedicarboxylic acid, diethyl ester], the figure is 3.16 µM; as for `CCOC(=O)C1=C(C)NC(C)=C(C(=O)OC)C1c1csc2ccncc12` (stereo not shown) [Example 33, 1,4-Dihydro-2,6-dimethyl-4-thieno[3,2-c]pyridin-3-yl-3,5-pyridinedicarboxylic acid, ethyl methyl ester], 0.0302 µM; as for `CCOC(=O)C1=C(C)NC(C)=C(C(=O)OCC)C1c1csc2cccnc12` [Example 11, 1,4-Dihydro-2,6-dimethyl-4-thieno[3,2-b]pyridin-3-yl-3,5-pyridinedicarboxylic acid, diethyl ester], 0.126 µM. On the same count and under the same terms, as for `C#CCOC(=O)C1=C(C)NC(C)=C(C(=O)OC)C1c1csc2ccncc12` (stereo not shown) [Example 48, 1,4-Dihydro-2,6-dimethyl-4-thieno[3,2-c]pyridin-3-yl-3,5-pyridinedicarboxylic acid, methyl 2-propynyl ester], the figure is 0.0912 µM; as for `CCOC(=O)C1=C(C)NC(C)=C(C(=O)OCC)C1c1csc2cccc([N+](=O)[O-])c12` [Example 28, 1,4-Dihydro-2,6-dimethyl-4-(4-nitrobenzo[b]thien-3-yl)-3,5-pyridinecarboxylic acid, diethyl ester], 0.155 µM.

As to `CCOC(=O)C1=C(C)NC(C)=C(C(=O)OC(C)C)C1c1csc2ccncc12` (stereo not shown) [Example 17, 1,4-Dihydro-2,6-dimethyl-4-thieno[3,2-c]pyridin-3-yl-3,5-pyridinedicarboxylic acid, 3-ethyl 5-isopropyl ester], the IC50 is 0.0832 µM. For `COCCOC(=O)C1=C(C)NC(C)=C(C(=O)OCCOC)C1c1csc2ccncc12` [Example 8, 1,4-Dihydro-2,6-dimethyl-4-thieno[3,2-c]pyridin-3-yl-3,5-pyridinedicarboxylic acid, bis(2-methoxyethyl)ester], inhibition was half-maximal at 0.501 µM (IC50). The molecule `CCOC(=O)C1=C(C)NC(C)=C(C(=O)OCC)C1c1csc2cc(N)ccc12` [Example 29, 4-(6-Aminobenzo[b]thien-3-yl)-1,4-dihydro-2,6-dimethyl-3,5-pyridinecarboxylic acid, diethyl ester] had an IC50 of 1.35 µM.

Consider `COCCOC(=O)C1=C(C)NC(C)=C(C(=O)OC)C1c1csc2ccncc12` (stereo not shown) [Example 21, 1,4-Dihydro-2,6-dimethyl-4-thieno[3,2-c]pyridine-3-yl-3,5-pyridinedicarboxylic acid, 3-methyl 5-(2-methoxyethyl)ester], for which the midpoint of inhibition, the IC50, lay at 0.0617 µM. Still for that read-out and setting: for `CCOC(=O)C1=C(C)NC(C)=C(C(=O)OCC)C1c1csc2ccccc12` [Example 3, 4-Benzo[b]thien-3-yl-1,4-dihydro-2,6-dimethyl-3,5-pyridinedicarboxylic acid, diethyl ester] the value was 0.0794 µM; for `COC(=O)C1=C(C)NC(C)=C(C(=O)OCCC#N)C1c1csc2ccncc12` (stereo not shown) [Example 34, 1,4-Dihydro-2,6-dimethyl-4-thieno[3,2-c]pyridin-3-yl-3,5-pyridinedicarboxylic acid, 2-cyanoethyl methyl ester], 0.316 µM; for `CCOC(=O)C1=C(C)NC(C)=C(C(=O)OCC)C1c1csc2c([N+](=O)[O-])cccc12` [Example 25, 1,4-Dihydro-2,6-dimethyl-4-(7-nitrobenzo[b]thien-3-yl)-3,5-pyridinedicarboxylic acid, diethyl ester], 1.7 µM.

Consider `COC(=O)C1=C(C)NC(C)=C(C(=O)OCCC#N)C1c1csc2ccccc12` (stereo not shown) [Example 35, 4-Benzo[b]thien-3-yl-1,4-dihydro-2,6-dimethyl-3,5-pyridinecarboxylic acid, 2-cyanoethyl methyl ester], for which inhibition was half-maximal at 0.251 µM (IC50). The molecule `COC(=O)C1=C(C)NC(C)=C(C(=O)OC(C)C)C1c1csc2cnccc12` (stereo not shown) [Example 41, 1,4-Dihydro-2,6-dimethyl-4-thieno[2,3-c]pyridin-3-yl-3,5-pyridinedicarboxylic acid, monomethyl mono(1-methylethyl)ester] gave an IC50 of 0.0324 µM. `CCOC(=O)C1=C(C)NC(C)=C(C(=O)OCC)C1c1csc2ncccc12` [Example 13, 1,4-Dihydro-2,6-dimethyl-4-thieno[2,3-b]pyridin-3-yl-3,5-pyridinedicarboxylic acid, diethyl ester] had a half-maximal inhibitory concentration (IC50) of 0.871 µM. Take `COC(=O)C1=C(C)NC(C)=C(C(=O)OCC2CC2)C1c1csc2cccnc12` (stereo not shown) [Example 46, 1,4-Dihydro-2,6-dimethyl-4-thieno[3,2-b]pyridin-3-yl-3,5-pyridinedicarboxylic acid, cyclopropylmethyl methyl ester]: it took 0.0832 µM to reach half-maximal inhibition (IC50). Molecule `COC(=O)C1=C(C)NC(C)=C(C(=O)OCCN(C)Cc2ccccc2)C1c1csc2ccncc12` (stereo not shown) [Example 31, 1,4-Dihydro-2,6-dimethyl-4-thieno[3,2-c]pyridin-3-yl-3,5-pyridine dicarboxylic acid, 3-methyl 5-(2-[methyl(phenylmethyl)amino]ethyl)ester] had an IC50 of 0.126 µM. With `CCOC(=O)C1=C(C)NC(C)=C(C(=O)OCC)C1c1nccc2ccsc12` [Example 24, 1,4-Dihydro-2,6-dimethyl-4-thieno[2,3-c]pyridin-7-yl-3,5-pyridinedicarboxylic acid, diethyl ester], half-maximal inhibition (IC50) was put at 0.0832 µM. `COC(=O)C1=C(C)NC(C)=C(C(=O)OC)C1c1csc2ccncc12` [Example 9, 1,4-Dihydro-2,6-dimethyl-4-thieno[3,2-c]pyridin-3-yl-3,5-pyridinedicarboxylic acid, dimethyl ester] had an IC50 of 0.1 µM. Consider `COC(=O)C1=C(C)NC(C)=C(C(=O)OCC2CC2)C1c1csc2cnccc12` (stereo not shown) [Example 44, 1,4-Dihydro-2,6-dimethyl-4-thieno[2,3-c]pyridin-3-yl-3,5-pyridinedicarboxylic acid, cyclopropylmethyl methyl ester], for which the IC50 was 0.0708 µM. As for `CCC(C)OC(=O)C1=C(C)NC(C)=C(C(=O)OC)[C@H]1c1csc2ccncc12` (stereo partly drawn) [Example 42, (R)-1,4-Dihydro-2,6-dimethyl-4-thieno[3,2-c]pyridin-3-yl-3,5-pyridinedicarboxylic acid, methyl 1-methylpropyl ester], 0.0813 µM corresponded to half-maximal inhibition (IC50). Turning to `COC(=O)C1=C(C)NC(C)=C(C(=O)OC(C)C)C1c1csc2ccccc12` (stereo not shown) [Example 38, 4-Benzo[b]thien-3-yl-1,4-dihydro-2,6-dimethyl-3,5-pyridinedicarboxylic acid, methyl 1-methylethyl ester], the midpoint of inhibition, the IC50, lay at 0.251 µM. Still for that read-out and setting: for `CCOC(=O)C1=C(C)NC(C)=C(C(=O)OCC)C1c1c(SC)sc2ccccc12` [Example 15, 1,4-Dihydro-2,6-dimethyl-4-[2-(methylthio)benzo[b]thien-3-yl]-3,5-pyridinedicarboxylic acid, diethyl ester] the value was 2.75 µM. As to `CCOC(=O)C1=C(C)NC(C)=C(C(=O)OCC)C1c1c(Br)sc2ccccc12` [Example 23, 4-(2-Bromobenzo[b]thien-3-yl)-1,4-dihydro-2,6-dimethyl-3,5-pyridinedicarboxylic acid, diethyl ester], the IC50 is 7.08 µM.

The assay is the same for the next values; noted with them: coronary artery rings contracted with 50 mM KCl, 37° C.; IC50 = 50% relaxation; mean values, probit analysis.
Regarding `CCC(C)OC(=O)C1=C(C)NC(C)=C(C(=O)OC)[C@@H]1c1csc2ccccc12` (stereo partly drawn) [Example 36, (S)-4-benzo[b]thien-3-yl-1,4-dihydro-2,6-dimethyl-3,5-pyridinedicarboxylicacid, methyl 1-methylpropyl ester], the “-log IC50” value stood at 5.7.

As for `CCOC(=O)C1=C(C)NC(C)=C(C(=O)OCC)C1c1nccc2ccsc12` [Example 54, 1,4-Dihydro-2,6-dimethyl-4-thieno[2,3-c]pyridin-7-yl-3,5-pyridinedicarboxylic acid, diethyl ester], the “-log IC50” value is 7.1.
